Measurements from ChEMBL document CHEMBL1201862, “PubChem BioAssay data set” (2004).
Activity calls are given as the source filed them.

Columns and labels:
[1] = target: T1, Kappa-type opioid receptor (Homo sapiens, UniProt P41145); type: functional
[2] = target: T2, Delta-type opioid receptor (Homo sapiens, UniProt P41143); assay: HTS Image-Based Screen for Agonists of the DOR Receptor. [Related pubchem assays (depositor defined):AID1777, AID1786, AID2133]; type: functional
[3] = target: T3, Mu-type opioid receptor (Homo sapiens, UniProt P35372); assay: HTS Image-Based Screen for Agonists of the MOR Receptor. [Related pubchem assays (depositor defined):AID1777, AID1785, AID1786, AID2133]; type: functional
[4] = target: T1, Kappa-type opioid receptor; type: functional; remark: listed apart in the source
[5] = target: T2, Delta-type opioid receptor; assay: HTS Image-Based Screen for Antagonists of the DOR Receptor. [Related pubchem assays (depositor defined):AID1777, AID1785, AID1786, AID2133]; type: functional
[6] = target: Beta-galactosidase (Escherichia coli, UniProt Q8VNN2); type: functional
[7] = test system: Vero; assay: cells; type: functional; conditions: Chlorocebus sabaeus
[8] = target: Microphthalmia-associated transcription factor (Homo sapiens, UniProt O75030); assay: TRPM1 promoter luciferase signal decrease, dose response, MITF inhibitor project, cell-based, SK-MEL-5, cherry-picked, set 3 (AID 493073); type: functional
[9] = target: T2, Delta-type opioid receptor; assay: DOR agonists, SAR follow-up, image-based (AID 2370); type: functional
[10] = target: T3, Mu-type opioid receptor; assay: MOR antagonists, SAR follow-up, image-based (AID 2420); type: functional;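 also: compounds added before stimulation of receptor with agonist DAMGO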
[11] = target: T1, Kappa-type opioid receptor; assay: KOR antagonists by imaging, SAR follow-up, image-based (AID 2348); type: functional
[12] = target: T1, Kappa-type opioid receptor; assay: KOR agonist analogs, imaging readout, SAR follow-up, image-based (AID 2359); type: functional
[13] = target: T2, Delta-type opioid receptor; assay: DOR antagonists, SAR follow-up, image-based (AID 2357); type: functional
[14] = target: T1, Kappa-type opioid receptor; assay: SAR analysis of small molecule agonists of the kappa opioid receptor via a luminescent beta-arrestin assay. [Related pubchem assays (depositor defined):AID1777, AID1786, AID1966, AID2133, AID2136, AID2348, AID2352, AID2357, AID2359, AID2370, AID2420, AID2478, AID2491, AID2492, AID2493, AID2497, AID2498, AID2500, AID449737, AID488822, AID488842]; type: functional
[15] = target: T3, Mu-type opioid receptor; assay: MOR agonists by imaging, SAR follow-up, image-based (AID 2352); type: functional
[16] = target: G-protein coupled receptor 55 (Homo sapiens, UniProt Q9Y2T6); assay: GPR55 antagonists, SAR follow-up, counter-screen for GPR35 antagonist project, imaging, image-based (AID 2397); type: functional
[17] = non-specific cell cytotoxicity, dose response, cytotoxicity control for PAX8 inhibitor project, plate reader, dry powder samples (AID 743021); type: functional, cell-based
[18] = target: Melanocortin receptor 4 (Homo sapiens, UniProt P32245); type: functional, cell-based;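 also: Cell-based assay with luminescence read-out, confirmatory dose-response testing for agonist activity of biased ligands at MC4R; human U2OS cells with tagged receptor and beta-arrestin; potency of agonists that increase receptor coupling to beta-arrestin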
[19] = target: Paired box protein Pax-8 (Homo sapiens, UniProt Q06710); assay: inhibitors of PAX8-driven TPO luciferase reporter, dose response, RMG-I cells, cherry-pick (AID 687027); type: functional, cell-based;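 also: luciferase reporter driven by Pax8 target thyroperoxidase promoter measured by SteadyGlo luminescence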
[20] = target: G-protein coupled receptor 35 (Homo sapiens, UniProt Q9HC97); assay: SAR Analysis for the identification of Selective Antagonists of ERK1/2 Activity in GPR35-Overexpressing U2OS Cells. [Related pubchem assays: 2079, 2058 ]; type: functional, cell-based
[21] = target: T1, Kappa-type opioid receptor; assay: SAR analysis of small molecule agonists of the kappa opioid receptor via a luminescent beta-arrestin assay - Set 3. [Related pubchem assays (depositor defined):AID1777, AID1785, AID1786, AID1966, AID2133, AID2136, AID2284, AID2500]; type: functional
[22] = target: T4, Tyrosine-protein phosphatase non-receptor type 7 (Homo sapiens, UniProt P35236); type: functional
T4 sequence (P35236 whole entry): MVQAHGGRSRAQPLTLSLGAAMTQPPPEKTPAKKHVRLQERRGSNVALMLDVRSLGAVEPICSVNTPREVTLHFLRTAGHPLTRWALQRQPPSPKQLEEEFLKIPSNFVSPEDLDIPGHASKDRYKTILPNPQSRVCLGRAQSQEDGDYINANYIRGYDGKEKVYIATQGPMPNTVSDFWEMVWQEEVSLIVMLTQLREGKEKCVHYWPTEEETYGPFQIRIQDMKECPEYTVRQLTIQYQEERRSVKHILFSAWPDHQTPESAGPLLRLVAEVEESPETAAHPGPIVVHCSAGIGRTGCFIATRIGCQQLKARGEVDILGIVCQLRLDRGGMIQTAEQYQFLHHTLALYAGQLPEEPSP

[23] = target: T5, Tyrosine-protein phosphatase non-receptor type 22 (Homo sapiens, UniProt Q9Y2R2); assay: PTPN22 phosphatase inhibition, dose response, selectivity assay for STEP inhibitor project, biochemical (AID 624241); type: functional
T5 sequence (Q9Y2R2 whole entry): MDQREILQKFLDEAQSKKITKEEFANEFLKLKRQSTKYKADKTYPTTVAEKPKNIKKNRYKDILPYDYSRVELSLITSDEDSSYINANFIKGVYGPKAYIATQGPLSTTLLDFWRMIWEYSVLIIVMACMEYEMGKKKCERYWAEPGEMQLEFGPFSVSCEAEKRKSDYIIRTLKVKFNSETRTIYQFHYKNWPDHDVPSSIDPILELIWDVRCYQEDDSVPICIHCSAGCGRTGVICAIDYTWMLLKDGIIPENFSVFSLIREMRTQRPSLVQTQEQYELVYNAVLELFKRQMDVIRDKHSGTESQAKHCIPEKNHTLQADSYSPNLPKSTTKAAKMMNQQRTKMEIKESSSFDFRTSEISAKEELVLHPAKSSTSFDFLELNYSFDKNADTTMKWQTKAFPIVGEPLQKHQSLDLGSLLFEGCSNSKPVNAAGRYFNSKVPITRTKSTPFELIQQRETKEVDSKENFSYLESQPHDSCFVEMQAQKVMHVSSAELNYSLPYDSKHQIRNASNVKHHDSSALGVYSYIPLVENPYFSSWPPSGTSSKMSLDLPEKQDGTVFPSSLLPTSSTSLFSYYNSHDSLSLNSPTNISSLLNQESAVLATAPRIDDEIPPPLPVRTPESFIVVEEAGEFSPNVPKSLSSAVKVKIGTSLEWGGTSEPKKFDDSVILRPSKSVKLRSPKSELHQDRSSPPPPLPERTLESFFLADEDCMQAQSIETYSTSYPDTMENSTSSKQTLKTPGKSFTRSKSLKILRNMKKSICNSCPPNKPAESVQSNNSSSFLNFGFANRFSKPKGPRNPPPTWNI

[24] = target: T6, Tyrosine-protein phosphatase non-receptor type 5 (Homo sapiens, UniProt P54829); assay: STEP phosphatase inhibitors, confirmation, biochemical, fluorescence intensity, uHTS hits (AID 602372); type: functional; conditions: read-out: IC50_Mean
T6 sequence (P54829 whole entry): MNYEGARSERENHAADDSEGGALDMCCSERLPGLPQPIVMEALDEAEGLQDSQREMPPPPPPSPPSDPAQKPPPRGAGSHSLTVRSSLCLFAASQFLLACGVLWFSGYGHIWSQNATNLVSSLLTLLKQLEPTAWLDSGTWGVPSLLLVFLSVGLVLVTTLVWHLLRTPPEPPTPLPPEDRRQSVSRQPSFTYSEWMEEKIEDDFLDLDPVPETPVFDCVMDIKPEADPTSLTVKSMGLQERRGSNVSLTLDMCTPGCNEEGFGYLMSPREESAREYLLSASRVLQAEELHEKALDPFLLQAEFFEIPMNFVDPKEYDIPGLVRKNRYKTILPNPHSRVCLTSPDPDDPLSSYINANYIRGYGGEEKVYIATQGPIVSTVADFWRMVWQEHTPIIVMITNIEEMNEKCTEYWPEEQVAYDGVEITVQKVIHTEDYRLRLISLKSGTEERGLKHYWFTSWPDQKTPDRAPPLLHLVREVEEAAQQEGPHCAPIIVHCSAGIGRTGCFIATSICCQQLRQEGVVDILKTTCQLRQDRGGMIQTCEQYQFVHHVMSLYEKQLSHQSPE

[25] = target: T5, Tyrosine-protein phosphatase non-receptor type 22; assay: LYP phosphatase inhibition for selectivity, dose response, selectivity assay for LMPTP inhibitor project, biochemical, fluorescence, LYP catalytic domain (AID 652006); type: functional; conditions: read-out: IC50_Mean
[26] = target: T5, Tyrosine-protein phosphatase non-receptor type 22; type: functional
[27] = target: T7, Carboxy-terminal domain RNA polymerase II polypeptide A small phosphatase 1 (Homo sapiens, UniProt Q9GZU7); assay: inhibitors of CTDSP1, concentration-response testing, biochemical assay, absorbance-based, actives from ultra-high-throughput screening (AID 540297); type: functional
T7 sequence (Q9GZU7 whole entry): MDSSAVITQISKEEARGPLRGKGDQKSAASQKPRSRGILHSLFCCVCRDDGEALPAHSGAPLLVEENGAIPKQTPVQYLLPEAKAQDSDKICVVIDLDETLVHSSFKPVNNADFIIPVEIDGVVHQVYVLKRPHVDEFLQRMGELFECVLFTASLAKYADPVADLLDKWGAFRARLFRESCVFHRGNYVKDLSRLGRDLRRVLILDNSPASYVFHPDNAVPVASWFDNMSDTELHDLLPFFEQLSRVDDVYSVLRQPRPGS

[28] = target: T8, Tyrosine-protein phosphatase non-receptor type 11 (Homo sapiens, UniProt Q06124); assay: SHP2 phosphatase inhibition, dose response, selectivity assay for STEP inhibitor project, biochemical (AID 602367); type: functional; conditions: read-out: IC50_Mean
T8 sequence (Q06124 whole entry): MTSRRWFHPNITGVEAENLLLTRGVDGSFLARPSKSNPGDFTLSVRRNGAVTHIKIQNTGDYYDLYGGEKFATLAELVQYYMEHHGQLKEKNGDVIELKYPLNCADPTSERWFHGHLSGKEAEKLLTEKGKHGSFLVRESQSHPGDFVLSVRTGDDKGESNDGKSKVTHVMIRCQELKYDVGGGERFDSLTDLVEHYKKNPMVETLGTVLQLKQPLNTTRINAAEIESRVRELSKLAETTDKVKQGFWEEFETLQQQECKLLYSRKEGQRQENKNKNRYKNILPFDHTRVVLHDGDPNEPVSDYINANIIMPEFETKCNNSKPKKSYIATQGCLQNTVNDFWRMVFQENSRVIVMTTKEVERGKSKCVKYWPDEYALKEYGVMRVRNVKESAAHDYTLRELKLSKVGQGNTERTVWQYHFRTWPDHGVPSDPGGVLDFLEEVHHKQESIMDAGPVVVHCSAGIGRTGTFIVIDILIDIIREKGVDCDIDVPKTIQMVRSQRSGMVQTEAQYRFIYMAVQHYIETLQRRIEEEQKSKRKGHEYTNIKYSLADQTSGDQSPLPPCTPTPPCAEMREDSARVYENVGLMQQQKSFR

[29] = target: T5, Tyrosine-protein phosphatase non-receptor type 22; type: functional; remark: listed apart in the source
[30] = target: Dual specificity protein phosphatase 3 (Homo sapiens, UniProt P51452); assay: VHR phosphatase inhibition, dose response, selectivity assay for STEP inhibitor project, biochemical (AID 602374); type: functional; conditions: read-out: IC50_Mean
[31] = target: T9, Low molecular weight phosphotyrosine protein phosphatase (Homo sapiens, UniProt P24666); type: functional; conditions: read-out: IC50_Mean
T9 sequence (P24666 whole entry): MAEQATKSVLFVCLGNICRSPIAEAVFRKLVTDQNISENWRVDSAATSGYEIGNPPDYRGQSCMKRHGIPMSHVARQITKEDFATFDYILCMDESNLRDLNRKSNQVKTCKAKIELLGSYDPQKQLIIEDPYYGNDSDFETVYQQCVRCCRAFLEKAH

[32] = target: T9, Low molecular weight phosphotyrosine protein phosphatase; type: functional; conditions: read-out: IC50_Mean; remark: listed apart in the source

T1 sequence (P41145 whole entry): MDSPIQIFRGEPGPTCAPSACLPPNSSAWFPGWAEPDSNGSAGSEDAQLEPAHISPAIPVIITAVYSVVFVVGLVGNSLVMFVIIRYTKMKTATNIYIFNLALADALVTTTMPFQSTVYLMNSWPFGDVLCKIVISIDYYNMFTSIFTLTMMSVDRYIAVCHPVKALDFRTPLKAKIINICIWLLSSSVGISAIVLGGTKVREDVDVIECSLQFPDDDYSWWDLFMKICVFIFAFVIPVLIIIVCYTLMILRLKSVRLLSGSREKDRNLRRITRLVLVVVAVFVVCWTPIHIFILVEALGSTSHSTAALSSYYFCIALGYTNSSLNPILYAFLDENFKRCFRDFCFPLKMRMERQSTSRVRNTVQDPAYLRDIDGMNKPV
T3 sequence (P35372 whole entry): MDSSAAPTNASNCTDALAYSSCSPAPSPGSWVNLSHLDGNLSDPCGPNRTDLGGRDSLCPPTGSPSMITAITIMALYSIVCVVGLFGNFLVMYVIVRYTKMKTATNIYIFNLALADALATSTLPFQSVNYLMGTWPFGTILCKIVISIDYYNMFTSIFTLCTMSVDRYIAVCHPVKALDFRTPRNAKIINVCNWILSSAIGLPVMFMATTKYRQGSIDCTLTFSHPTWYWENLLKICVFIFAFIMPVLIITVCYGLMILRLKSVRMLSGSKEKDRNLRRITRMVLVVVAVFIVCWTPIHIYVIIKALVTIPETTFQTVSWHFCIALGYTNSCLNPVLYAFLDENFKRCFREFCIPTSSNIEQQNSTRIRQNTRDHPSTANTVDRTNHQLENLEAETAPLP
T2 sequence (P41143 whole entry): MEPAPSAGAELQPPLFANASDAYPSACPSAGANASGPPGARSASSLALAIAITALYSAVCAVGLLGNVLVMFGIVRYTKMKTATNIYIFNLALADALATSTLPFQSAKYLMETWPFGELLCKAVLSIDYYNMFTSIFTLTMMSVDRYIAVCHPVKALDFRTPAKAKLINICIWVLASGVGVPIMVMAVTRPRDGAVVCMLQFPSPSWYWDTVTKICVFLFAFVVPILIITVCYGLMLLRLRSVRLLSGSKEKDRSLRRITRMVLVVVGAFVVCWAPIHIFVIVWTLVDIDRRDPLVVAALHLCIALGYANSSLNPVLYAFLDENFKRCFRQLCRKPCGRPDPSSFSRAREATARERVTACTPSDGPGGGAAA
Sequence of Paired box protein Pax-8 (Q06710 whole entry): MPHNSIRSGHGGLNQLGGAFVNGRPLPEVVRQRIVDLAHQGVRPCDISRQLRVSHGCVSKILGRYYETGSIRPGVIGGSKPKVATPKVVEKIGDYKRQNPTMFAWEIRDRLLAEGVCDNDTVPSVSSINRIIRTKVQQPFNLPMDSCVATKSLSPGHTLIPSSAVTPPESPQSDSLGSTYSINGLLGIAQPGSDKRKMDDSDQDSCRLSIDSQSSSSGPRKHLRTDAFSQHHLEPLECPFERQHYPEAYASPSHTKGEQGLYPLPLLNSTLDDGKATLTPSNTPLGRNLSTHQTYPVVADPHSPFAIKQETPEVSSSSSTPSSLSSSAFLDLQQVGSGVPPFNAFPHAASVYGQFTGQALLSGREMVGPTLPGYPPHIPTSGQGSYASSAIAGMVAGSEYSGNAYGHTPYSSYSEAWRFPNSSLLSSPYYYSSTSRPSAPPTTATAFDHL
Sequence of G-protein coupled receptor 55 (Q9Y2T6 whole entry): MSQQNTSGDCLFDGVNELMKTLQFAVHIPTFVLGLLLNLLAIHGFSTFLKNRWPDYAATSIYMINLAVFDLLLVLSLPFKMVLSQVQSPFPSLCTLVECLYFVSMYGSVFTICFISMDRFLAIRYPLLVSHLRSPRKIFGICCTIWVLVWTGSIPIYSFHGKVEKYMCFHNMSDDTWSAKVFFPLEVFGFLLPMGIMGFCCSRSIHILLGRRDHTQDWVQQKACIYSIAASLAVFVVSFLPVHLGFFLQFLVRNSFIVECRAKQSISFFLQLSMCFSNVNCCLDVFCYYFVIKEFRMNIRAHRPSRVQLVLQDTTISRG
Sequence of Microphthalmia-associated transcription factor (O75030 whole entry): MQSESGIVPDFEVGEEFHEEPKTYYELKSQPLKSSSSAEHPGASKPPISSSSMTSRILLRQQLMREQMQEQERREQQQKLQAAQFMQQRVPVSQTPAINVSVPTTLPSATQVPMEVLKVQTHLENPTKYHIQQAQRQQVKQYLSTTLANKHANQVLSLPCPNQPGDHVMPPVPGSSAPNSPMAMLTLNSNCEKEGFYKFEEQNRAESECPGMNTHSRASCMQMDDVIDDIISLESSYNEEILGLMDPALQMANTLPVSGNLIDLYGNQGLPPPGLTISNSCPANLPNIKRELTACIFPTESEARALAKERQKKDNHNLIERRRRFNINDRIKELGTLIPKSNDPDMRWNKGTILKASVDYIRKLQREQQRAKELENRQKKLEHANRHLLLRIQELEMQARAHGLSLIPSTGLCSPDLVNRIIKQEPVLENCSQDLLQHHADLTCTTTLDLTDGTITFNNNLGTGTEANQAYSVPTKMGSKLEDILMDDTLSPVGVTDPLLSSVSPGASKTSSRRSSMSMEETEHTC
Sequence of Beta-galactosidase (Q8VNN2 whole entry): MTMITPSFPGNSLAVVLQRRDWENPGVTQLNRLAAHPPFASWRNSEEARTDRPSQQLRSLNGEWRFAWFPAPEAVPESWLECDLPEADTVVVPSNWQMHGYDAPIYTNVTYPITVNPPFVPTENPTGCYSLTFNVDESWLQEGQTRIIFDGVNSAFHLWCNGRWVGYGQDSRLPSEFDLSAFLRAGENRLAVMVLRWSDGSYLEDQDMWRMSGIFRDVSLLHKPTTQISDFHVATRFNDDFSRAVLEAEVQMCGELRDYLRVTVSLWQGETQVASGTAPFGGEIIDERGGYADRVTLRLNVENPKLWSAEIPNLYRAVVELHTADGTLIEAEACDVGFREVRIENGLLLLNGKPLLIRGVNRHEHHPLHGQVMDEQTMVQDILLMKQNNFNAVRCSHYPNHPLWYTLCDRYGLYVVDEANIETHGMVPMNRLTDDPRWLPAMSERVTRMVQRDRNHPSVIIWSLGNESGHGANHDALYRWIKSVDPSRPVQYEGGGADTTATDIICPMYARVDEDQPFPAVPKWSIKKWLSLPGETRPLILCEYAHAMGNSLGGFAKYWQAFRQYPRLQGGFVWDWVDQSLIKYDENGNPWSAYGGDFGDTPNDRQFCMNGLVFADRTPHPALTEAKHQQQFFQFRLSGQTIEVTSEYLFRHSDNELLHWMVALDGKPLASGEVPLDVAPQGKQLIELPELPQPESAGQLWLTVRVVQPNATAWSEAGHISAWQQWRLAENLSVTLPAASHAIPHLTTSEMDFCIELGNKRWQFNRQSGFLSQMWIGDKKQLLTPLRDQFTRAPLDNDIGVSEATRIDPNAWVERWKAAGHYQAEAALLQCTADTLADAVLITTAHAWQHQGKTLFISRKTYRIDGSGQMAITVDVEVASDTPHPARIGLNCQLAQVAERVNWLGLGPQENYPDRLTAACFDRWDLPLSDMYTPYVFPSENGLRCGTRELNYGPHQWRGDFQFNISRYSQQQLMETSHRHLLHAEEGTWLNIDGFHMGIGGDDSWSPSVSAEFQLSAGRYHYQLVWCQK
Sequence of G-protein coupled receptor 35 (Q9HC97 whole entry): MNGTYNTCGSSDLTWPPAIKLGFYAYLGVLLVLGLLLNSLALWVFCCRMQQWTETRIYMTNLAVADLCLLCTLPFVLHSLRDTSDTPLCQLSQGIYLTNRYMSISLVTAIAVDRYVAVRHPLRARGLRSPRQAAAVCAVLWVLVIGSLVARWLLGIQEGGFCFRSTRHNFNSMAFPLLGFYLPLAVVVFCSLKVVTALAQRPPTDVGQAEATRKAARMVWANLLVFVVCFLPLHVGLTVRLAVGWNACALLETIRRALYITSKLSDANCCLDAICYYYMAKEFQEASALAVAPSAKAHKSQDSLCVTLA
Sequence of Dual specificity protein phosphatase 3 (P51452 whole entry): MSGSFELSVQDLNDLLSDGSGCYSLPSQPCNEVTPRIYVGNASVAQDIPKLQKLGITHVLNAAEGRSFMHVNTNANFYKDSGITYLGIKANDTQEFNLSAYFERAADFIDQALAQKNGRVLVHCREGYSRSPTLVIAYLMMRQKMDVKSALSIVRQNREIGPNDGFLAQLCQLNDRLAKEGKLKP
Sequence of Melanocortin receptor 4 (P32245 whole entry): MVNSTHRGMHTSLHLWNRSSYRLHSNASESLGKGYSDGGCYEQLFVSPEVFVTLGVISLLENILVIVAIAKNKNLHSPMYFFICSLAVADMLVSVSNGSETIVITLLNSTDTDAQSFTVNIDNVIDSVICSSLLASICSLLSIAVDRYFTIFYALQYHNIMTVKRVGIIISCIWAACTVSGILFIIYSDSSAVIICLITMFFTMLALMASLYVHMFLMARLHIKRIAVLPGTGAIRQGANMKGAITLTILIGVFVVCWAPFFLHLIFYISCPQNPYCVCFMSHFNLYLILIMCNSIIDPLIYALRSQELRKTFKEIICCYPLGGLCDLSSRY

## COc1cc(OC)cc(-c2nnc(NC(=O)c3ccc4c(c3)OCCO4)o2)c1
[1]
  IC50: 13.3 µM (active)
[2]
  EC50: > 32 µM (inactive)
[3]
  EC50: > 32 µM (inactive)
[4]
  IC50: > 32 µM
[5]
  IC50: > 32 µM (inactive)
[6]
  EC50: > 31.5 µM (inactive)

## CC(C)N=C(NS(=O)(=O)c1ccccc1)C(Cl)(Cl)Cl
[7]
  CC50: 11.5 µM (active)
[8]
  AC50: 6.76 µM (active)

## COc1ccc(C(=O)CSc2nnc(-c3ccccn3)n2Cc2ccco2)cc1
[9]
  EC50: > 32 µM (inactive)
[10]
  IC50: > 32 µM (inactive)
[11]
  IC50: > 32 µM (inactive)
[12]
  EC50: > 32 µM (inactive)
[13]
  IC50: > 32 µM (inactive)
[14]
  EC50: > 10 µM (inactive)
[15]
  EC50: > 32 µM (inactive)

## Clc1ccc(Cn2ncc3c(N4CCN(c5ccccc5)CC4)ncnc32)cc1
[16]
  IC50: 29.3 µM (inactive)
[17]
  AC50: 33.9 µM (active)
[18]
  EC50: > 89.1 µM (inactive)
[19]
  AC50: 8.65 µM (active)
[20]
  IC50: > 32 µM (not active)

## COc1ccc(Cn2c(SCc3ccc(Cl)c(Cl)c3)nnc2-c2ccccn2)cc1
[21]
  EC50: 17.4 µM (inactive)

## O=C(COc1ccc(/C=N/NC(=O)c2ccc(O)cc2)cc1)Nc1cccc([N+](=O)[O-])c1
[22]
  IC50: 49.1 µM (active)
[23]
  IC50: 48.9 µM (inactive)
[24]
  IC50: 8.06 µM (active)
[25]
  IC50: 11.6 µM (active)
[26]
  IC50: 64.7 µM (active)
[27]
  IC50: 2.98 µM (active)
[28]
  IC50: 2.41 µM (active)
[29]
  IC50: 37.6 µM (active)
[30]
  IC50: 3.06 µM (active)
[31]
  IC50: 11.2 µM (active)
[32]
  IC50: 15.8 µM (active)
